Patent publication US20080220416A1, “Compositions for Inhibiting Cell Growth and Inducing Apoptosis in Cancer Cells and Methods of Use Thereof” (THE BOARD OF TRUSTEES OF THE UNIVERSITY OF ILLINOI, priority 2004, published 2008)
Peptide text beside a SMILES is read from it. * marks the point of attachment. Cbz = O=C(OCc1ccccc1)*

Experiments:
Type in all cases: cell-based, human
NOXA = experiment: Western blot of NOXA after proteasome inhibitors in normal melanocytes; conditions: 18 hrs
Text: A panel of melanoma cells were used to assess the effect of bortezomib on pro-apoptotic proteins. RJ002L, C8161, MUM2B and SK-MeI-28 melanoma cells, as well as two normal melanocyte cultures (MC-010 and MC-012) were examined. Prior to testing, the RJ002L melanoma cell lines were maintained in RPMI supplemented with 10% FBS. Late passage melanoma cell lines (C8161, MUM2B and SK-Me1028) were utilized as previously described (Welch D et al., 1991, Int J Cancer 47:227-237; Bittner M et al., 2000, Nature 406:536-540). Normal human melanocytes were isolated from neonatal foreskins and cultured as previously described (Qin J et al., 2004, Mol Cancer Ther 3:895-902). Proliferating cells were examined by Western blot analysis before and after 18 hrs of exposure to bortezomib (1 μM). Antibodies were obtained as follows: Bad (SC-8044), Bcl-2 (SC-7382), Bcl-xL (SC-634), Mcl-1 (SC-819), Bak (SC-832) from Santa Cruz Biotechnology (Santa Cruz, Calif.); NOXA (OP180) from Calbiochem; Bid, Bim and PUMA from Cell Signaling (Beverly, Mass.); BAX from Upstate (Charlottesville, Va.); and β-actin from ICN (Irvine, Calif.). For the Western blot analysis, whole cell extracts were prepared as previously described (Denning M et al., 1998, J Biol Chem 273:29995-30002). Briefly, cells were harvested by scraping monolayers and washed with PBS. Cell pellets were resuspended in CHAPS buffers containing a protease inhibitor cocktail. Extracts were vigorously shaken at 4° C. for 15 min followed by centrifugation. Supernatants were collected and protein concentration determined using Bio-Rad reagent. Thirty to 50 microgram protein samples were resolved by SDS-polyacrylamide gel electrophoresis and transferred to polyvinylidene difluoride membrane by electroblotting. Membranes were probed with the various primary antibodies overnight at 4° C., followed by detection using ECL reagents (Amersham Pharmacia Biotech, Piscataway, N.J.) according to manufacturer's instructions.
Two other proteasome inhibitors, lactasytsin and MG-132, were tested for the ability to induce NOXA in melanoma cells and melanocytes. […]

melanoma cell lines = experiment: Proteasome inhibitors, apoptosis of melanoma cell lines (Annexin V FITC flow cytometry)
Procedure: (§1) The proteasome inhibitors lactacystin, MG-132, and bortezomib were evaluated for the ability to induce apoptosis in malignant melanoma cell lines (n=3) including an early passage line, RJ002L. MG-132 was obtained from Calbiochem (La Jolla, Calif.) and dissolved in DMSO. Lactacystin was purchased from Sigma Chemical Co. (St. Louis, Mo.) and dissolved in PBS. Bortezomib was obtained from a pharmacy as VELCADE (bortezomib) for Injection from a single use vial for intravenous use only (Millennium Pharmaceuticals, Cambridge, Mass.). A cell line with wild-type p53 (RJ002L) and two melanoma cell lines with mutant p53 alleles (C8161 and MUM2B) were included in this study. Two additional melanoma cell lines were also used: cutaneous SK-MeI-28 cells and primary, early passage MG012 cells. In addition, five normal melanocyte culture cell lines (MC-005, MC-006, MC-008, MC-009 and MC-011) were examined. Prior to testing, the melanoma cell lines were maintained in RPMI supplemented with 10% FBS. Normal human melanocytes were isolated from neonatal foreskins as previously described (Qin J et al., 2004, Mol Cancer Ther 3:895-902, 2004) and cultured with medium 154 containing growth supplements (Cascade Biologics, Portland, Oreg.).
To assess the effect of proteasome inhibitors on the cell lines, the cells were grown in suitable culture media as described above. Highly proliferating cells (i.e., cells that had reached approximately 30% confluency) were exposed to the inhibitors as described below. The culture media was replenished with media containing proteasome inhibitors at various concentrations and the cells were incubated for 24 hours prior to harvesting the cells for further analysis.
(§2) Following treatment with the proteasome inhibitors, the melanoma and melanocyte cell cultures were assayed for apoptotic cells using the APO TARGET Annexin V FITC staining kit (Biosource, Camarillo, Calif.) according to the manufacturer's instructions followed by flow cytometric analysis using FACScaliber (Becton Dickinson, Palo Alto, Calif.) as described in Qin, J. et al., 2001, Nat Med 7: 385-386. In some cases, cell cycle and apoptosis analysis was measured using propidium iodide staining and flow cytometry as described. Cells with DNA content less than the G0 amount of untreated cells were considered apoptotic. For cell analysis, DNA histograms were analyzed using MultiCycle for Windows (Phoenix Flow Systems, San Diego, Calif.) as described in Denning, M. F. et al., 1998, J Biol Chem 273: 29995-30002.

normal melanocytes = experiment: Proteasome inhibitors, apoptosis of normal melanocyte cultures (Annexin V FITC flow cytometry)
Procedure: as §1
To assess the effect of proteasome inhibitors on the cell lines, the cells were grown in suitable culture media as described above. […]
as §2, with “Cells with DNA content less than the G0 amount of untreated cells were considered apoptotic.” left out

| SMILES | NOXA induction (NOXA; MC-010, MC-012, 1 μM) | concentration triggering significant apoptotic response (p<0.05) (melanoma cell lines; all melanoma cell lines examined) [µM] | dead cells (melanoma cell lines; all melanoma cell lines tested, 10 μM, 24 hrs continuous exposure) | apoptotic response (normal melanocytes; MC009 and MC011, 0.01 to 10 μM, 24 hrs continuous exposure) | NOXA induction (NOXA; MC-004, MC-005, MC-006, MC-008, 1 μM or 10 μM) | apoptotic response to increasing concentrations (melanoma cell lines; RJ002L, MG012, C8161, MUM2B, SK-MeI-28, 1-10 μM, 24 hrs) | cells undergoing apoptosis (normal melanocytes; MC-005, MC-006, MC-008, 24 hrs, 1, 5 or 10 μM) |
| --- | --- | --- | --- | --- | --- | --- | --- |
| CC(C)C[C@H](NC(=O)[C@H](Cc1ccccc1)NC(=O)c1cnccn1)B(O)O [bortezomib, N-(2-pyrazine)carbonyl-L-phenylalanine-L-leucine boronic acid] | did not exhibit NOXA induction | ≥ 0.1 | 30-70% | less than 10% | – | – | – |
| CC(C)C[C@@H](C=O)NC(=O)[C@H](CC(C)C)NC(=O)[C@H](CC(C)C)NC(=O)OCc1ccccc1 [MG-132, benzoxycarbonyl-Leucyl-Leucyl-Leucyl-aldehyde] (Cbz-Leu-Leu-Leu-aldehyde) | – | – | – | – | no induction of NOXA in any of the normal melanocytes | significantly enhanced apoptotic responses | No more than 10% |
